PMC10272112 (Nature Communications, 2023)
Values joined by “and” are separate entries in the source; they are usually repeats but may differ in a detail not shown here. Identical values can stand only once.

Assays:
GSE1 = test: Chemoproteomic competition pulldown assay (co-competed CoREST partner); type: binding
Experimental: (§1) To identify proteins directly bound by lipoic acid, we employed a chemoproteomic competition assay. Briefly, (R/S)-LA was immobilized on sepharose beads via an amidation reaction to form an affinity matrix (abbreviated as iL; Fig. 1a). This affinity matrix can be incubated with cell lysate to pull down potential LA or LM target proteins and identify these targets via bottom-up proteomics. In a competition assay, free LA or LM were incubated with lysate at different concentrations before pulling down and quantifying target proteins. […] (Fig. 1b, see “Methods” for details). […] The lysate buffer used in this assay contains 1 mM DTT to mimic the intracellular reductive milieu and to reduce lipoic acid and LM. […] Additional competition assays performed in lung adenocarcinoma cell A549 lysate also identified HDAC1, HDAC2, and HDAC6 as targets (Supplementary Fig. 1b). Amongst the three cell lines tested, HDACs were the only confidently identified targets across the 1500–3000 proteins quantified in these assays. […] We validated the results by analogous pulldown competition assays using two other affinity matrices prepared via the immobilization of either the HDAC inhibitor Quisinostat (iQ) and an analog of the class IIa HDAC inhibitor Bürli’s 31[14] (iC)[12]. We have previously shown that these affinity matrices specifically bind to the active sites of HDACs and have used them for HDACi selectivity profiling. Indeed, binding of (R/S)-LA and (R/S)-LM to HDAC1, HDAC2, HDAC3, HDAC6, and, to a lesser extent, HDAC8 was confirmed in these assays (Supplementary Fig. 1c, d). No binding to class IIa HDACs or the recently discovered common HDAC inhibitor off-target MBLAC2 was observed (Supplementary Fig. 1e)[12]. […] This observation might reflect electrostatic repulsion between the HDAC10 active site gate-keeper glutamic acid residues[15],[16] and the terminal carboxylic acid of LA.
(§2) To assess the degree of protein depletion from lysates by the affinity matrix, a second pulldown (PDPD) with fresh beads was performed using the unbound protein fraction from the vehicle control flow through. The beads were washed (1 × 1 mL of lysis buffer without inhibitors and only 0.4% Igepal, 2 × 2 mL of lysis buffer without inhibitors and only 0.2% Igepal), and captured proteins were denatured with 8 M urea buffer, alkylated with 55 mM chloroacetamide and digested with Trypsin according to standard procedures. The resulting peptides were desalted on a C18 filter plate (Sep-Pak® tC18 µElution Plate, Waters), vacuum dried, and stored at −20 °C until LC–MSMS measurement.
(§3) For the competition assays, relative binding was calculated based on the protein intensity ratio to the DMSO control for every single inhibitor concentration. EC50 values were derived from a four-parameter log-logistic regression with variable slope (constrain: bottom > 0). The obtained EC50 values were multiplied with a protein-dependent correction factor (cf), resulting in the apparent Kd value (Kd^app). The correction factor is determined by calculating the ratio of the protein intensity of two consecutive pulldowns of the vehicle control sample[13]. Targets of the inhibitors were annotated manually according to published procedures[12],[46],[47]. […] Additionally, the number of unique peptides and MSMS counts per condition were taken into account. Positive target binding across several independent experiments performed with different cell lysates further substantiated our confidence for a true positive drug-target binding event.

HMG20B = test: as above; type: binding
Experimental: as §1, §2, §3

HeLa S3 cells = test: Global acetyl-lysine detection by Western blot; conditions: for relative lysine acetylation vs DMSO: HeLa S3, 1 mM, 16 h, replicates A/B
Experimental: HeLa S3 was grown in DMEM medium (PAN Biotech) supplemented with 10% FBS (PAN Biotech) and treated with drugs (final concentration of 0.1% DMSO) for indicated periods. […] The protein amount of cell lysates was determined by Bradford assay. […] Proteins were separated by SDS-PAGE and electro-transferred onto PVDF membranes. […] Acquisition and quantification of the band fluorescence intensities were carried out with the Odyssey (Licor) imaging system and corresponding software (v 3.0.29). Intensities of proteins were normalized to input beta-Actin and further normalized to the control treatments to calculate the relative acetylation change.

TBL1XR1 (Homo sapiens) = test: Chemoproteomic competition pulldown assay (co-competed NCoR partner); type: binding; conditions: iQ, SW620 lysate
Chain of TBL1XR1 (Homo sapiens) (O15379 whole entry): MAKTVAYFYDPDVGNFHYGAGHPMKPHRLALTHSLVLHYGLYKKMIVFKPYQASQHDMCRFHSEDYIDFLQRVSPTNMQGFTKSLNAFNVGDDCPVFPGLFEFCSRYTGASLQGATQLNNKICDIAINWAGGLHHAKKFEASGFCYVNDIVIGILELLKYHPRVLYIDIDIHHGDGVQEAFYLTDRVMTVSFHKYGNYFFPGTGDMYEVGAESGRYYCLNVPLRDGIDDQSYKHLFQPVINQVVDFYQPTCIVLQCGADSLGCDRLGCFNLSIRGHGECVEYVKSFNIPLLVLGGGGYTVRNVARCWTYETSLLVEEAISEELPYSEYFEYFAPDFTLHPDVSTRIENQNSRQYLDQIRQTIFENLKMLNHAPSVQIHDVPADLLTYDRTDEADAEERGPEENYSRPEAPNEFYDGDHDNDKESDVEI
Chain of TBL1XR1 (Homo sapiens) (Q9BZK7 2-514, further chain): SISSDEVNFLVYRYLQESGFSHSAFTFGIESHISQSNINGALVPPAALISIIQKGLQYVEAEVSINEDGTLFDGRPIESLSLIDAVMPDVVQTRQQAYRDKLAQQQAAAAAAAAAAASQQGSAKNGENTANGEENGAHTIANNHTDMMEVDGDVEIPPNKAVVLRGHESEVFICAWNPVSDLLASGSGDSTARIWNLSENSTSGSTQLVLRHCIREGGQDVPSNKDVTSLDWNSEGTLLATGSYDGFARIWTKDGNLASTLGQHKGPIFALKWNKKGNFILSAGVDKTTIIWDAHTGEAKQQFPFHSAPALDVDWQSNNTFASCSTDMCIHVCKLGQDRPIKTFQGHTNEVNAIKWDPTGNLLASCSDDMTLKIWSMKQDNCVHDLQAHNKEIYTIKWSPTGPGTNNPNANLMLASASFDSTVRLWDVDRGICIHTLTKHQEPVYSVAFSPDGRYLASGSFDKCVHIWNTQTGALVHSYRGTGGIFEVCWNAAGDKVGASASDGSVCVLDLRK
Experimental: as §1, §2, §3

[1] = iL, A549 lysate, log10 M -4.52288
[2] = iL, A549 lysate, log10 M -5.52288
[3] = iL, A549 lysate, log10 M -6.52288
[4] = iL, A549 lysate, log10 M -7.52288
[5] = iL, A549 lysate, log10 M -8.52288
[6] = iQ, SW620 lysate, log10 M -3.52288
[7] = iQ, SW620 lysate, log10 M -4.52288
[8] = iQ, SW620 lysate, log10 M -5.52288
[9] = iQ, SW620 lysate, log10 M -6.52288
[10] = HeLa S3, time-dependent treatment, 5 mM
[11] = iL, MV4-11 lysate, log10 M -3.52288
[12] = iL, MV4-11 lysate, log10 M -4.52288
[13] = iL, MV4-11 lysate, log10 M -5.52288
[14] = iL, MV4-11 lysate, log10 M -6.52288

O=C(O)CCCCC1CCSS1 (racemic) [(R/S)-LA, (R/S)-lipoic acid]
relative binding vs DMSO (GSE1; iL, A549 lysate, log10 M -4): 0.002926 | relative binding vs DMSO (GSE1; [1]): 0.03688 | relative binding vs DMSO (GSE1; iL, A549 lysate, log10 M -5): 0.08918 | relative binding vs DMSO (GSE1; [2]): 0.4136 | relative binding vs DMSO (GSE1; iL, A549 lysate, log10 M -6): 0.8054 | relative binding vs DMSO (GSE1; [3]): 1.293 | relative binding vs DMSO (GSE1; [4]): 1.282 | relative binding vs DMSO (GSE1; iL, A549 lysate, log10 M -8): 1.353 | relative binding vs DMSO (GSE1; [5]): 1.278 | relative binding vs DMSO (GSE1; iL, SW620 lysate, log10 M -3.52288): 0 | relative binding vs DMSO (GSE1; iL, SW620 lysate, log10 M -4): 0 | relative binding vs DMSO (GSE1; iL, SW620 lysate, log10 M -4.52288): 0 | relative binding vs DMSO (GSE1; iL, SW620 lysate, log10 M -5): 0.09089 | relative binding vs DMSO (GSE1; iL, SW620 lysate, log10 M -5.52288): 0.3606 | relative binding vs DMSO (GSE1; iL, SW620 lysate, log10 M -6): 1.287 | relative binding vs DMSO (GSE1; iL, SW620 lysate, log10 M -6.52288): 0.7924 | relative binding vs DMSO (GSE1; iL, SW620 lysate, log10 M -7): 1.217 | relative binding vs DMSO (GSE1; [6]): 0.1048 | relative binding vs DMSO (GSE1; iQ, SW620 lysate, log10 M -4): 0.1152 | relative binding vs DMSO (GSE1; [7]): 0.3197 | relative binding vs DMSO (GSE1; iQ, SW620 lysate, log10 M -5): 0.4493 | relative binding vs DMSO (GSE1; [8]): 0.5952 | relative binding vs DMSO (GSE1; iQ, SW620 lysate, log10 M -6): 0.7905 | relative binding vs DMSO (GSE1; [9]): 0.8177 | relative binding vs DMSO (GSE1; iQ, SW620 lysate, log10 M -7): 0.7924 | relative binding vs DMSO (HMG20B; iL, A549 lysate, log10 M -4): 0.09481 | relative binding vs DMSO (HMG20B; [1]): 0 | relative binding vs DMSO (HMG20B; iL, A549 lysate, log10 M -5): 0 | relative binding vs DMSO (HMG20B; [2]): 0 | relative binding vs DMSO (HMG20B; iL, A549 lysate, log10 M -6): 0.5309 | relative binding vs DMSO (HMG20B; [3]): 1.1771 | relative binding vs DMSO (HMG20B; [4]): 1.54 | relative binding vs DMSO (HMG20B; iL, A549 lysate, log10 M -8): 1.531 | relative binding vs DMSO (HMG20B; [5]): 0.9986 | relative binding vs DMSO (HMG20B; [6]): 0.2338 | relative binding vs DMSO (HMG20B; iQ, SW620 lysate, log10 M -4): 0.0385 | relative binding vs DMSO (HMG20B; [7]): 0.4714 | relative binding vs DMSO (HMG20B; iQ, SW620 lysate, log10 M -5): 0.5482 | relative binding vs DMSO (HMG20B; [8]): 0.8626 | relative binding vs DMSO (HMG20B; iQ, SW620 lysate, log10 M -6): 0.8649 | relative binding vs DMSO (HMG20B; [9]): 1.158 | relative binding vs DMSO (HMG20B; iQ, SW620 lysate, log10 M -7): 1.067 | relative lysine acetylation vs DMSO (HeLa S3 cells; 10-12 kDa bands): 5.9571 and 6.0208 | relative lysine acetylation vs DMSO (HeLa S3 cells; 14-16 kDa bands): 4.6853 and 4.9960 | relative lysine acetylation vs DMSO (HeLa S3 cells; 21-23 kDa bands): 2.3477 and 2.3498 | relative lysine acetylation vs DMSO (HeLa S3 cells; 24-26 kDa bands): 2.1045 and 2.1971 | relative lysine acetylation vs DMSO (HeLa S3 cells; 49-51 kDa bands): 6.4530 and 6.1942 | relative lysine acetylation vs DMSO (HeLa S3 cells; 65-73 kDa bands): 5.8639 and 5.7630 | time of peak acetylation (HeLa S3 cells; [10]): 3 to 8 h | time to upregulation of acetylation on a broad range of proteins (HeLa S3 cells; [10]): ≤ 1 h | relative binding vs DMSO (TBL1XR1 (Homo sapiens); log10 M -3.52288): 0.2899 | relative binding vs DMSO (TBL1XR1 (Homo sapiens); log10 M -4): 0.4212 | relative binding vs DMSO (TBL1XR1 (Homo sapiens); log10 M -4.52288): 0.5577 | relative binding vs DMSO (TBL1XR1 (Homo sapiens); log10 M -5): 0.7209 | relative binding vs DMSO (TBL1XR1 (Homo sapiens); log10 M -5.52288): 0.9534 | relative binding vs DMSO (TBL1XR1 (Homo sapiens); log10 M -6): 0.8832 | relative binding vs DMSO (TBL1XR1 (Homo sapiens); log10 M -6.52288): 1.088 | relative binding vs DMSO (TBL1XR1 (Homo sapiens); log10 M -7): 1.002

NC(=O)CCCCC1CCSS1 (racemic) [(R/S)-LM, (R/S)-lipoamide]
relative binding vs DMSO (GSE1; [11]): 0.03208 | relative binding vs DMSO (GSE1; iL, MV4-11 lysate, log10 M -4): 0.05802 | relative binding vs DMSO (GSE1; [12]): 0.1417 | relative binding vs DMSO (GSE1; iL, MV4-11 lysate, log10 M -5): 0.4933 | relative binding vs DMSO (GSE1; [13]): 0.6793 | relative binding vs DMSO (GSE1; iL, MV4-11 lysate, log10 M -6): 0.8351 | relative binding vs DMSO (GSE1; [14]): 0.9265 | relative binding vs DMSO (GSE1; iL, MV4-11 lysate, log10 M -7): 0.8883 | relative binding vs DMSO (GSE1; [6]): 0.1386 | relative binding vs DMSO (GSE1; iQ, SW620 lysate, log10 M -4): 0.1278 | relative binding vs DMSO (GSE1; [7]): 0.3991 | relative binding vs DMSO (GSE1; iQ, SW620 lysate, log10 M -5): 0.559 | relative binding vs DMSO (GSE1; [8]): 0.8469 | relative binding vs DMSO (GSE1; iQ, SW620 lysate, log10 M -6): 1.003 | relative binding vs DMSO (GSE1; [9]): 0.8631 | relative binding vs DMSO (GSE1; iQ, SW620 lysate, log10 M -7): 0.9076 | relative binding vs DMSO (HMG20B; [11]): 0.0242 | relative binding vs DMSO (HMG20B; iL, MV4-11 lysate, log10 M -4): 0.0521 | relative binding vs DMSO (HMG20B; [12]): 0.1443 | relative binding vs DMSO (HMG20B; iL, MV4-11 lysate, log10 M -5): 0.4724 | relative binding vs DMSO (HMG20B; [13]): 0.6292 | relative binding vs DMSO (HMG20B; iL, MV4-11 lysate, log10 M -6): 0.8935 | relative binding vs DMSO (HMG20B; [14]): 0.8513 | relative binding vs DMSO (HMG20B; iL, MV4-11 lysate, log10 M -7): 1.055 | relative binding vs DMSO (TBL1XR1 (Homo sapiens); log10 M -3.52288): 0.1308 | relative binding vs DMSO (TBL1XR1 (Homo sapiens); log10 M -4): 0.176 | relative binding vs DMSO (TBL1XR1 (Homo sapiens); log10 M -4.52288): 0.3741 | relative binding vs DMSO (TBL1XR1 (Homo sapiens); log10 M -5): 0.8567 | relative binding vs DMSO (TBL1XR1 (Homo sapiens); log10 M -5.52288): 0.9248 | relative binding vs DMSO (TBL1XR1 (Homo sapiens); log10 M -6): 0.9851 | relative binding vs DMSO (TBL1XR1 (Homo sapiens); log10 M -6.52288): 0.8544 | relative binding vs DMSO (TBL1XR1 (Homo sapiens); log10 M -7): 0.9921
